Reference: patent US7704969B2, “Transfection complexes” (ICH Productions Limited, priority 2001, dated 2010)
“Also recorded” adds a separate entry of the source. Bridge positions count the residues as written; N and C are the ends. Ends that are not written are not given here.

Legend:
HAE cells [1] = test: Luciferase reporter gene transfection of HAE cells with lipid/peptide/DNA vector complexes; format: cell-based, human
From the text: Transfection complexes were made by mixing the components in the order 1) lipid, then 2) peptide and, finally 3) DNA, followed by dilution. The vector complex suspension was applied to HAE cells and control cells. Vector complexes incorporating peptide Q ([K]16-GACLQHKSMPCG [SEQ. ID. NO.:12]) and vector complexes incorporating peptide P ([K]16-GACLPHKSMPCG [SEQ. ID. NO.:13]) were synthesised and compared with vector complexes incorporating peptide S ([K]16-GACYKHPGFLCG] [SEQ. ID. NO.:14]) which is a control peptide having the same amino acid constituents as peptide P but in a randomised order (the “scrambled control”), Peptide 12 ([K]16—XSXGACRRETAWACG [SEQ. ID. NO.:15]), a targeting peptide known to bind to alpha 5 beta 1 integrins and Peptide K ([K]16) a DNA binding moiety with no targeting ligand attached.
Transfections of HAE cells and 3T3 cells were performed in 96 well plates containing 20,000 cells plated 24 hours earlier. In the transfection vector complex, peptide to DNA charge ratios (+/−) were used at 1.5:1, 3:1 and 7:1. At physiological pH, DNA carries negative charge and the polycationic-nucleic acid binding component carries positive charge. The “charge ratio” is accordingly the ratio of the charges of the two components in the complex. The lipid component was maintained at a constant proportion, by weight, relative to DNA of 0.75:1.
Control peptide (S), consisted of the same amino acid constituents as the targeting peptide P but in a randomised order, was synthesised for incorporation into lipopolyplex formulations. Transfections of HAE and 3T3 cells were performed in 96 well plated containing 20,000 cells plated 24 h earlier. In the transfection complex, peptide to DNA charge ratios (+/−) were used at 1.5:1, 3:1 and 7:1. The lipid component was maintained at a constant proportion, by weight, relative to DNA of 0.75:1. Prior to making transfection complexes the lipid component was diluted to a concentration of 15 μg per ml, the peptide was prepared at 0.1 mg/ml and the DNA was at 20 μg per ml. All dilutions were performed with OptiMEM reduced serum tissue culture medium (Life Technologies). Transfection complexes were made by mixing of components in the order 1) lipid then 2) peptide and finally 3) DNA, then diluted with OptiMEM to a concentration relative to the DNA component of 0.25 μg DNA per 200 μl which volume was added to each well. Each group was performed in replicates of six. The vector complex suspension was then applied to cells within 5 minutes of preparation. Transfection incubations were performed at 37° C. for 4 h. Luciferase reporter gene assays in cell free extracts were performed after 48 h incubation using a kit from Promega according to the manufacturer's protocol. […]

3T3 cells = test: Luciferase reporter gene transfection of 3T3 cells; format: cell-based, mouse; conditions: FIG. 8, best peptide:DNA charge ratio, expression after 24 hours
HAE cells [2] = test: Whole cell ELISA of phage binding to HAE cells; set-up: species or system human; conditions: phage sequences of Table 1a compared and ranked using a range of phage titres
Method: Following incubation of the phage with the HAE cells, the cells are washed and retained phage may then be detected by immunostaining. Cell specificity is assessed by comparing phage binding to target cells with phage binding to the wells on which the cells were plated and with phage binding to NIH 3T3 fibroblast control cells.
Binding of phage to tissue cultured HAE cells was investigated by whole cell ELISA. Approx. 8×10^4 HAE cells in […] Hanks Balanced Salts Solution (HBSS) were added to each well of a 96 well plate and incubated at 37° C. until cells had adhered. The cells were washed gently in HBSS before blocking by the addition of 0.5% BSA in HBSS for 30 mins. […] Bound phage were detected by the addition of horseradish peroxidase (HRP)-conjugated anti-M13 antibody diluted 1:5000 in blocking buffer for 1 hour, before washing three times in PBS and developing the ELISA with 2,2′-azino-bis(3-ethylbenzthiazoline 6-sulfonic acid) (ABTS) substrate solution and reading the absorbance on a plate-reading spectrophotometer at 405 nm. […]
Approx. […] Bound phage were detected by the addition of HRP-conjugated anti-M13 antibody diluted 1:5000 in blocking buffer for 1 hour, before washing three times in PBS, developing the ELISA with ABTS solution, and reading the absorbance at 405 nm.

Question: How did the “transfection performance of peptide S relative to peptide K16” value (HAE cells [1]; in transfection complexes) turn out when “[K]16-GACYKHPGFLCG (KKKKKKKKKKKKKKKKGACYKHPGFLCG; N-terminal K16 oligolysine; Targeting peptide, see description) [peptide S, reference compound]” was run?
Answer: The value was “less than a tenth as good”.

Question: “[K]16-GACLPHKSMPCG (KKKKKKKKKKKKKKKKGACLPHKSMPCG; disulfide 19-27 (inferred)) [peptide P]” was tested. Which “transfection efficiency relative to peptide 12 (next best peptide)” value (HAE cells [1]; peptide P at 7:1 charge ratio vs peptide 12 at 3:1 charge ratio, luciferase) did it give?
Answer: Its value is “five-fold higher”.

Question: And the “transfection performance relative to peptide Q” value (HAE cells [1]; transfection assay, FIG. 3)?
Answer: The value was “significantly better”.

Question: And the “transfection efficiency relative to peptide K (K16, no targeting ligand)” value (HAE cells [1]; vector complexes, luciferase)?
Answer: The value was “almost nine-fold higher; also recorded: almost nine-fold more efficient”.

Question: For [K]16-GACLQHKSMPCG [peptide Q], which “transfection efficiency relative to peptide 6” value (3T3 cells) is on record?
Answer: Its value is “approximately 1.5 times”.

Question: For “LPHKSMP (not fully specified (N-terminus, C-terminus)) [basis of peptide P]”, which “binding affinity to HAE cells (binding strength by ELISA)” value (HAE cells [2]) is on record?
Answer: Its value is “highest binding affinity”.

Question: Which “transfection efficiency relative to peptide 6” value (3T3 cells) does the source give for “[K]16-GACSERSMNFCG (KKKKKKKKKKKKKKKKGACSERSMNFCG; disulfide 19-27 (inferred))” here?
Answer: The value was “approximately 1.5 times”.
